Source: ChEMBL document CHEMBL1142999, “Discovery of potent, selective, orally active, nonpeptide inhibitors of human mast cell chymase” (J Med Chem, 2007)
One block for each molecule: values may come before it. The source made the active and inactive calls. No cut-off for these calls is given here.

How the values were obtained:
[1] = target: T1, Chymase (Homo sapiens) (UniProt P23946); assay: Inhibition of human skin chymase at 10 uM
T1 sequence (whole entry): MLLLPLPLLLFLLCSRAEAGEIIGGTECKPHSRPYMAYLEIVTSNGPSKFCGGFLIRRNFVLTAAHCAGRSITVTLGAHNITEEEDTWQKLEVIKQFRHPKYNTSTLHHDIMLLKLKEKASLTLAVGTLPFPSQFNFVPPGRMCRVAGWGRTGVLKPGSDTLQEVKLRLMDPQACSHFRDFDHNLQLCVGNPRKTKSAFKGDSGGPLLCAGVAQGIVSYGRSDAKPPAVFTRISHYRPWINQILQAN

[2] = system: Syrian golden hamster; assay: Antiinflammatory activity against carrageenan-induced paw inflammation in golden Syrian hamster at 10 mg/kg, im; assay type: functional, organism-based; parameters: dose 10 mg/kg; settings: Mesocricetus auratus
[3] = target: T2, Cathepsin G (Homo sapiens) (UniProt P08311); assay: Inhibition of human neutrophil Cat G at 100 uM
T2 sequence (whole entry): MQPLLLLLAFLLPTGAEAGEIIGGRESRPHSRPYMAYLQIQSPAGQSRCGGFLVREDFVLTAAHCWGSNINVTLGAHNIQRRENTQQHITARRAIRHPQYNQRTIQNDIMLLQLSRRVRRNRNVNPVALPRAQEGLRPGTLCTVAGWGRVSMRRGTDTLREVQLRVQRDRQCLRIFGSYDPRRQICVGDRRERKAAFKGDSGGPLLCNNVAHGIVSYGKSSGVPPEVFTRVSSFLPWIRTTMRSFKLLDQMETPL

[4] = species on record: Homo sapiens; assay: Inhibition of human beta-tryptase at 100 uM
[5] = species on record: Homo sapiens; assay: Inhibition of human chymotrypsin at 100 uM
[6] = species on record: Homo sapiens; assay: Inhibition of human alpha-thrombin at 100 uM
[7] = target: Trypsin (Homo sapiens, UniProt P07477+P07478+P35030); assay: Inhibition of human trypsin; assay type: protein assay
[8] = Oral bioavailability in rat; assay type: ADME, organism-based; settings: in vivo
[9] = target: T3, Cathepsin G (Homo sapiens, UniProt P08311); assay: Inhibition of human neutrophil Cat G
T3 sequence (P08311 whole entry): T2 sequence (whole entry)

[10] = target: T4, Neutrophil elastase (Homo sapiens) (UniProt P08246); assay: Inhibition of human leukocyte elastase at 100 uM
T4 sequence (whole entry): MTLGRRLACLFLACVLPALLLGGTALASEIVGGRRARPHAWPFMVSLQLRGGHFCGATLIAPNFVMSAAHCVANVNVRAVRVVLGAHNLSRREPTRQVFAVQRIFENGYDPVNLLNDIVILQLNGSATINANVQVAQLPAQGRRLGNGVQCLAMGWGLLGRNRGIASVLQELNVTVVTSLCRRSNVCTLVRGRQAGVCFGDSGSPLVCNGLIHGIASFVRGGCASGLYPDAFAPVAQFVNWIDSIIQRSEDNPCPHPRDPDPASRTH

[11] = target: Coagulation factor X (Homo sapiens) (UniProt P00742); assay: Inhibition of human factor Xa at 100 uM
[12] = Half life in orally dosed rat; assay type: ADME, organism-based; settings: in vivo, po
[13] = target: T5, Coagulation factor VII (Homo sapiens) (UniProt P08709); assay: Inhibition of human factor VIIa at 100 uM
T5 sequence (whole entry): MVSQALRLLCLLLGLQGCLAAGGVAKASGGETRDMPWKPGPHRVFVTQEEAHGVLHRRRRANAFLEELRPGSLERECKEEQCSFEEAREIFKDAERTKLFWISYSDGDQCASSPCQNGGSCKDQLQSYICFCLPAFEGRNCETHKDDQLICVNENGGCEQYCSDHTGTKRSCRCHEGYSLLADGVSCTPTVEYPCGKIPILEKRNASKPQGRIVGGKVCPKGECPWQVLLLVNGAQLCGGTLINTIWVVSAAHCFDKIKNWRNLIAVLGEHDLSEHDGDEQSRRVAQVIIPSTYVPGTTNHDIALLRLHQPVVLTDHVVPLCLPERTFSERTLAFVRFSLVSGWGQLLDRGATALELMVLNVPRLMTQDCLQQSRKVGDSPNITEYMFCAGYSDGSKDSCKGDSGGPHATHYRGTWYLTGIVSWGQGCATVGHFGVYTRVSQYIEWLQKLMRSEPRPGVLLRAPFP

[14] = Cmax in rat; assay type: ADME, organism-based; settings: in vivo
[15] = system: Syrian golden hamster; assay: Antiinflammatory activity against carrageenan-induced paw inflammation in golden Syrian hamster at 30 mg/kg, po; assay type: functional; settings: Mesocricetus auratus

Coagulation factor X (Homo sapiens), sequence (P00742 41-179 limits assumed): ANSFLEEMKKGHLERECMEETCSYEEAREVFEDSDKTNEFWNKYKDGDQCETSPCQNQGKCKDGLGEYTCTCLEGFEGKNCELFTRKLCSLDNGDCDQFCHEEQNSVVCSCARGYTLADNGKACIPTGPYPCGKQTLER
Coagulation factor X (Homo sapiens), sequence (P00742 235-488 limits assumed): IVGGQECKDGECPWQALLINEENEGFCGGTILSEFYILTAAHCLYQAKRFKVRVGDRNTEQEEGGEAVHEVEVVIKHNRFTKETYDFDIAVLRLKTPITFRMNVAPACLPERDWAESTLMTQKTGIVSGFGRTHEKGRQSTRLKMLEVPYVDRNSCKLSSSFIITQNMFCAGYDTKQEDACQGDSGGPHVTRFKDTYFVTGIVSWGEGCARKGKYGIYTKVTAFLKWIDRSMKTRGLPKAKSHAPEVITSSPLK

Compound: O=C(Nc1ccc2ccccc2c1)C(n1nnc2ccccc21)P(=O)(O)O (configuration not stated)
- inhibition [1]: < 50%

Compound: C[C@@H]1C[C@H]2[C@@H]3CCC4=CC(=O)C=C[C@]4(C)[C@@]3(F)[C@@H](O)C[C@]2(C)[C@@]1(O)C(=O)CO
- Activity [2]: Active

Compound: O=C(Nc1ccc2ccccc2c1)C(c1cccc2ccccc12)P(=O)(O)O (configuration not stated)
- inhibition [3]: 0%

Further lines, with some results ahead:

- inhibition [4]: < 50%
- inhibition [5]: < 50%
- inhibition [6]: < 50%
- IC50 [7]: 12 µM
- bioavailability [8]: 3%
- Ki [9]: 9.5 µM
- inhibition [10]: < 50%
- inhibition [11]: < 50%
- half-life [12]: 1.8 h
- inhibition [13]: < 50%
Compound: O=C(Nc1ccc2ccccc2c1)C(c1csc2ccc(Cl)cc12)P(=O)(O)O (configuration not stated)

- Cmax [14]: 6 µM
- bioavailability [8]: 39%
- half-life [12]: 4.5 h
Compound: CP(=O)(O)C(C(=O)N/C=C/c1cc(F)cc(Cl)c1)c1csc2ccc(Cl)cc12 (configuration not stated)
- inhibition in vivo at 30 mg/kg [15]: 50%
